# Assays:
# Assay type in all cases: cell-based, human
# [1] = test system: monocyte-derived DC; experiment: Phenotypic changes of DC upon coculture with γδ T cells (flow cytometry)
# Method: DC cultures were cultured for 24 alone, in the presence of BrHpp (200 nM) only, or with γδ T cells activated by BrHpp as described in example 1. Neutralizing anti-TNF or anti-IFNγ Ab was added at a concentration of 20 and 15 μg/ml, respectively. The expression of HLA-DR, CD86, and CD83 on DC was measured by flow cytometry and expressed as means+/−SEM of mean fluorescence intensity in five independent experiments on different healty donors. • ^1 p<0.05 compared to DC cultured alone or with BrHpp only. • ^2 p<0.05 compared to DC cultured with activated γδ T cells in absence of mAb.
# Purification of γδ T cells and DC generation. Peripheral blood mononuclear cells (PBMC) from healthy volunteers were isolated by density centrifugation of heparinized blood on Lymphoprep (Nycomed, Oslo, Norway), washed with HBSS, resuspended in culture medium and allowed to adhere In culture flasks for 2 h at 37° C. Non-adherent cells were removed and adherent monocytes were cultured during 6 days in presence of 500 U/ml granulocyte macrophage colony-stimulating factor (GM-CSF) (Leucomax, Schering-Plough Kenilworth, N.J.) and 800 U/ml of IL-4 (Cellgenix, Freiburg, Germany). The resulting cell preparation routinely contained >90% DC as assessed by morphology and FACS analysis.
# (§1) Cell culture conditions. γδ T cells (7.5 10^5 cells/500 μl) were cultured for 24 h in flat-bottomed 24-well plates in culture medium supplemented or not with BrHpp (200 nM). Autologous DC (10^6 cells/500 μl) were added to γδ T cell cultures for another 24 h and analyzed for the expression of surface markers and for their ability to release cytokines. In parallel, DC (10^6 cells/ml) were cultured for 24 h in 24-well plates either in medium alone, or in presence of BrHpp (100 nM). In some experiments, anti-TNF-α (20 μg/ml) or anti-IFN-γ (15 μg/ml) neutralizing monoclonal antibody (mAb) or their isotypic control used at similar concentration (Biosource Fleurus, Belgium) were added to DC-γδ T cell cocultures. In parallel, DC and γδ T cells were cocultured in a transwell culture system (Costar, Belgium).
# Immunophenotyping by flow cytometry. Monocyte-derived DC were stained using PE-labeled specific mAb HLA-DR, CD86, CD83 (Beckton-Dickinson, Mountain view, CA). FITC-conjugated anti-TCR γδ mAb (Becton-Dickinson, San Jose, Calif.) was used to assess γδ T cell purity and to exclude them in flow cytometry analysis of DC in DC-γδ T cell cocultures. Briefly, 5×10^5 cells were incubated with the relevant mAbs or their isotype-matched controls for 20 min at 4° C., washed and fluorescence intensity was analyzed using a FACS-Calibur (Becton-Dickinson).
# [2] = test system: γδ T cells; experiment: TNF-α and IFN-γ production by γδ T cells (ELISA)
# Method: γδ T cells (7.5 10^5 cells/500 μl) were either cultured in medium alone or stimulated with BrHpp (200 nM). After 48 h, culture supernatants were assayed by ELISA for TNF-α and IFN-γ levels.
# For γδ T cell isolation, cells expressing γ-δ receptors on their membrane were positively selected using immunomagnetic depletion (Miltenyi Sanvertech, Belgium). Briefly, non-adherent PBMC containing 2 to 5% of γδ T cells were incubated with biotin-conjugated anti-γδ T cell receptor (TCR) antibodies for 15 min at 4° C., washed three times, and then incubated with immunomagnetic beads coated with streptavidin.
# as §1, with “In some experiments, anti-TNF-α (20 μg/ml) or anti-IFN-γ (15 μg/ml) neutralizing monoclonal antibody (mAb) or their isotypic control used at similar concentration (Biosource Fleurus, Belgium) were added to DC-γδ T cell cocultures.” left out
# (§2) Determination of cytokine levels. TNF-α, IL-12 p-40 and IFN-γ levels in culture supernatants were determined by ELISA kits from Biosource. IL-12 p70 levels were measured using the Endogen Elisa kit (Endogen, Belgium).
# [3] = test system: monocyte-derived DC; experiment: IL-12 production by DC in DC-γδ T cell cocultures (ELISA)
# Method: FIG. 3: γδ T cells induce IL-12 production by DC. Monocyte-derived DC were cocultured alone or in the presence of BrHpp only or cocultured with unstimulated or BrHpp-activated γδ T in absence or presence of either anti-TNF-α, anti-IFN-γ neutralizing mAbs or both. After 24 h of culture, supernatants were assayed for IL12-p40 and p70 levels by ELISA. Results were expressed as mean±SEM of 6 independent experiments. • * p<0.05 compared to DC cultured in medium alone or containing BrHpp • ** p<0.05 compared to DC stimulated with BrHPP-activated γδ T cells in the absence of mAb.
# as §1, §2
# [4] = DC cultured 24 h with BrHpp (200 nM) only, mean+/-SEM, 5 experiments
# [5] = γδ T cells 7.5 10^5 cells/500 μl, BrHpp 200 nM, 48 h, culture supernatant, mean±SEM of 13 experiments
compound,measurement,setting,value
"CC(O)(CBr)CCOP(=O)(O)OP(=O)(O)O (centres unmarked) [BrHpp, bromohydrin pyrophosphate]",CD83 expression on DC (mean fluorescence intensity),[1]; [4],69 +/− 14
same,CD86 expression on DC (mean fluorescence intensity),[1]; [4],308 +/− 205
same,HLA DR expression on DC (mean fluorescence intensity),[1]; [4],610 +/− 354
same,"effect of preactivation of γδT cells on upregulation of HLA-DR, CD86 and CD83 on DC",[1]; γδT cells preactivated with BrHpp versus not preactivated,did not result in a further increase
same,effect on IFN-γ secretion by γδ T cells,[2]; text statement on table 1,induced
same,effect on basal production of TNF-α by γδ T cells,[2]; text statement on table 1,further increased
same,IFN-γ,[2]; [5],452 ± 76^1 pg/ml
same,TNF-α,[2]; [5],17406 ± 1290^1 pg/ml
same,effect on IL-12 production by DC,[3]; DC cultured in absence of γδ T cells,no effect
same,induction of IL-12 (p70) synthesis,[3]; DC-γδ T cell coculture in the presence of BrHpp,detected
same,increase in IL-12 (p40) levels,[3]; DC-γδ T cell coculture in the presence of BrHpp versus without BrHpp,3 fold
